From patent US20210276967A1 (OSPEDALE SAN RAFFAELE S.R.L., priority 2018, published 2021)

Tested on: HBV
Assay: HBV inhibition in HepAD38 cells, extracellular HBV DNA by direct qPCR
Assay type: cell-based, hepatitis B virus
Settings: Hepatitis B virus
Description: HepAD38 cell line (Ladner et al., Antimicrob Agents Chemother, 1997, 41, 1715-20) was used for HBV inhibition assays. HepAD38 is a subclone, derived from hepatoblastoma cell line HepG2 (ATCC® Number: HB-8065™), that expresses HBV genome under the transcriptional control of a tetracycline-responsive promoter in a TET-OFF system: addition of tetracycline (TET) or doxycycline suppresses HBV replication, while its removal switches on the process allowing HBV viral particles release in the cell supernatant. HepAD38 cell line is maintained in DMEM/F12, supplemented with 10% of fetal bovine serum, 1% of glutamine, 1% of penicillin/streptomycin, 0.4 mg/ml G418 and 0.3 ug/ml tetracycline. For the HBV inhibition assay, doxycycline-free medium is used in order to allow virion production.
HBV inhibition activity in vitro was performed in 96 multiwell plates. During the initial (primary) screening compounds were first tested in triplicates at concentrations of 0.1 μM, 0.5 μM and 1 μM. For selected compounds, an 8-point dose-response curve was obtained using 1:2 serial dilutions (starting from 2.5 μM, 1.25 μM or 0.4 μM, depending on the degree of inhibition observed during the primary screening). From the dose-response curves, half maximal effective concentration (EC50) could be calculated (see also below).
In more detail, compounds—typically dissolved in DMSO stock solutions—were diluted to 2× the final desired concentration in 100 μl of the above medium (without doxycycline) and plated in three replicates in the 96-well plates.
Simultaneously, HepAD38 cells—extensively pre-washed in tetracycline-free medium in order to induce HBV production—were suspended at 2*10^4 cells in 100 μl of tetracycline-free medium and added to each well of the plate, to yield a final assay volume of 200 μl.
DMSO, used for stock solutions and compounds dilutions, is always present in the assays at a final concentration of 0.5%.
Plates were then incubated 96 hours at 37° C. and then subjected to cell viability assays and extracellular HBV quantification, in order to evaluate both the cytotoxic potential and the anti-viral activity of compounds.
Cytotoxicity was assessed by a commercial fluorescence assay that measures the metabolic activity of cells, directly related to cell viability (Cell Titer Blue, Promega). For each compound, cytotoxicity was evaluated at the same concentration employed to evaluate its anti-HBV activity. Anti-HBV activity was evaluated by quantification of extracellular HBV DNA with direct qPCR. In particular, supernatant was collected and centrifuged for cell debris clarification, viral DNA was extracted from virions by addition of lysis buffer (1 mM 1,4-dithiothreitol, 0.2% sodium dodecyl sulphate) and incubated at 95° C. for 10 min. Samples were then diluted 1:40 and real time PCR amplification was performed with SYBR green assay (Power SYBR™ Green PCR Master Mix-Thermo Fisher Scientific) and specific HBV primer (HBV-DF:5′-[…]-3′ (SEQ ID No. 1), HBV-DR:5′-[…]-3′ (SEQ ID No. 2)).
All HBV inhibition or antiviral activity data are typically reported in percent (%) relative to a non-treated reference sample. Excel and Graphpad Prism programs are typically used for data elaboration and EC50 calculation.

Row | SMILES | inhibition at 0.5 µM (0.5 μM, HepAD38, 96 hours, read-out: HBV inhibition % (conc μM)) [%] | EC50 (HepAD38, 8-point dose-response, read-out: HBV inh EC50) [nM]
1 | Nc1ccc(C(=O)Nc2cc(F)c(F)c(F)c2)cc1S(N)(=O)=O [Example E3, 4-amino-3-sulfamoyl-N-(3,4,5-trifluorophenyl)benzamide] | > 50 | 
2 | Cc1cc(N)c(S(N)(=O)=O)cc1C(=O)Nc1cc(F)c(F)c(F)c1 [Example E17, 4-amino-2-methyl-5-sulfamoyl-N-(3,4,5-trifluorophenyl)benzamide] |  | < 1000
